Test results from the NIST ThermoML archive (doi:10.1021/je060271a).
Numbers after ± are expanded uncertainties.

Settings: 323.15 K, Liquid, Vibrating tube method

## CCCCCCCC(=O)OCC(COC(=O)CCCCCCC)(COC(=O)CCCCCCC)COC(=O)CCCCCCC [pentaerythritol tetraoctanoate]
26616 kPa
  mass density: 957.5 ± 1.2 kg/m3
26661 kPa
  mass density: 957.4 ± 1.2 kg/m3
26699 kPa
  mass density: 957.6 ± 1.2 kg/m3
26737 kPa
  mass density: 957.5 ± 1.2 kg/m3
26782 kPa
  mass density: 957.5 ± 1.2 kg/m3
26820 kPa
  mass density: 957.5 ± 1.2 kg/m3
26866 kPa
  mass density: 957.6 ± 1.2 kg/m3
26904 kPa
  mass density: 957.6 ± 1.2 kg/m3
26944 kPa
  mass density: 957.7 ± 1.2 kg/m3
26985 kPa
  mass density: 957.7 ± 1.2 kg/m3
27024 kPa
  mass density: 957.7 ± 1.2 kg/m3
27070 kPa
  mass density: 957.8 ± 1.2 kg/m3
27109 kPa
  mass density: 957.9 ± 1.2 kg/m3
27407 kPa
  mass density: 957.9 ± 1.2 kg/m3
27548 kPa
  mass density: 957.8 ± 1.2 kg/m3
27601 kPa
  mass density: 958 ± 1.2 kg/m3
27639 kPa
  mass density: 958.1 ± 1.2 kg/m3
27665 kPa
  mass density: 958.1 ± 1.2 kg/m3
27687 kPa
  mass density: 958.2 ± 1.2 kg/m3
27713 kPa
  mass density: 958.1 ± 1.2 kg/m3
27735 kPa
  mass density: 958.1 ± 1.2 kg/m3
27761 kPa
  mass density: 958.2 ± 1.2 kg/m3
27784 kPa
  mass density: 958.1 ± 1.2 kg/m3
27806 kPa
  mass density: 958.3 ± 1.2 kg/m3
27832 kPa
  mass density: 958.2 ± 1.2 kg/m3
27854 kPa
  mass density: 958.3 ± 1.2 kg/m3
27877 kPa
  mass density: 958.2 ± 1.2 kg/m3
27899 kPa
  mass density: 958.2 ± 1.2 kg/m3
27926 kPa
  mass density: 958.2 ± 1.2 kg/m3
27943 kPa
  mass density: 958.3 ± 1.2 kg/m3
27970 kPa
  mass density: 958.3 ± 1.2 kg/m3
28091 kPa
  mass density: 958.4 ± 1.2 kg/m3
28114 kPa
  mass density: 958.4 ± 1.2 kg/m3
28142 kPa
  mass density: 958.4 ± 1.2 kg/m3
28164 kPa
  mass density: 958.3 ± 1.2 kg/m3
28188 kPa
  mass density: 958.3 ± 1.2 kg/m3
28216 kPa
  mass density: 958.4 ± 1.2 kg/m3
28238 kPa
  mass density: 958.4 ± 1.2 kg/m3
28262 kPa
  mass density: 958.4 ± 1.2 kg/m3
28284 kPa
  mass density: 958.5 ± 1.2 kg/m3
28312 kPa
  mass density: 958.6 ± 1.2 kg/m3
28336 kPa
  mass density: 958.5 ± 1.2 kg/m3
28358 kPa
  mass density: 958.6 ± 1.2 kg/m3
28386 kPa
  mass density: 958.5 ± 1.2 kg/m3
28410 kPa
  mass density: 958.5 ± 1.2 kg/m3
28434 kPa
  mass density: 958.4 ± 1.2 kg/m3
28461 kPa
  mass density: 958.5 ± 1.2 kg/m3
28484 kPa
  mass density: 958.5 ± 1.2 kg/m3
28508 kPa
  mass density: 958.6 ± 1.2 kg/m3
28531 kPa
  mass density: 958.6 ± 1.2 kg/m3
28559 kPa
  mass density: 958.6 ± 1.2 kg/m3
28583 kPa
  mass density: 958.6 ± 1.2 kg/m3
28607 kPa
  mass density: 958.7 ± 1.2 kg/m3
28635 kPa
  mass density: 958.6 ± 1.2 kg/m3
28658 kPa
  mass density: 958.7 ± 1.2 kg/m3
28687 kPa
  mass density: 958.9 ± 1.2 kg/m3
28711 kPa
  mass density: 958.7 ± 1.2 kg/m3
28734 kPa
  mass density: 958.8 ± 1.2 kg/m3
28758 kPa
  mass density: 958.6 ± 1.2 kg/m3
28787 kPa
  mass density: 958.8 ± 1.2 kg/m3
28812 kPa
  mass density: 958.8 ± 1.2 kg/m3
28836 kPa
  mass density: 958.8 ± 1.2 kg/m3
28860 kPa
  mass density: 958.9 ± 1.2 kg/m3
28889 kPa
  mass density: 958.7 ± 1.2 kg/m3
28913 kPa
  mass density: 958.9 ± 1.2 kg/m3
28937 kPa
  mass density: 958.8 ± 1.2 kg/m3
28966 kPa
  mass density: 958.9 ± 1.2 kg/m3
28990 kPa
  mass density: 958.9 ± 1.2 kg/m3
29019 kPa
  mass density: 958.9 ± 1.2 kg/m3
29043 kPa
  mass density: 958.8 ± 1.2 kg/m3
29068 kPa
  mass density: 958.9 ± 1.2 kg/m3
29098 kPa
  mass density: 958.9 ± 1.2 kg/m3
29122 kPa
  mass density: 958.9 ± 1.2 kg/m3
29148 kPa
  mass density: 958.9 ± 1.2 kg/m3
29173 kPa
  mass density: 959.1 ± 1.2 kg/m3
29198 kPa
  mass density: 959 ± 1.2 kg/m3
29218 kPa
  mass density: 959 ± 1.2 kg/m3
29248 kPa
  mass density: 959 ± 1.2 kg/m3
29273 kPa
  mass density: 959 ± 1.2 kg/m3
29302 kPa
  mass density: 959.1 ± 1.2 kg/m3
29333 kPa
  mass density: 959.1 ± 1.2 kg/m3
29357 kPa
  mass density: 959.1 ± 1.2 kg/m3
29383 kPa
  mass density: 959.1 ± 1.2 kg/m3
29412 kPa
  mass density: 959.1 ± 1.2 kg/m3
29438 kPa
  mass density: 959.2 ± 1.2 kg/m3
29462 kPa
  mass density: 959.2 ± 1.2 kg/m3
29494 kPa
  mass density: 959.2 ± 1.2 kg/m3
29520 kPa
  mass density: 959.1 ± 1.2 kg/m3
29545 kPa
  mass density: 959.2 ± 1.2 kg/m3
29571 kPa
  mass density: 959.2 ± 1.2 kg/m3
29601 kPa
  mass density: 959.1 ± 1.2 kg/m3
29627 kPa
  mass density: 959.3 ± 1.2 kg/m3
29652 kPa
  mass density: 959.2 ± 1.2 kg/m3
29682 kPa
  mass density: 959.4 ± 1.2 kg/m3
29708 kPa
  mass density: 959.2 ± 1.2 kg/m3
29733 kPa
  mass density: 959.3 ± 1.2 kg/m3
29764 kPa
  mass density: 959.3 ± 1.2 kg/m3
29790 kPa
  mass density: 959.3 ± 1.2 kg/m3
29816 kPa
  mass density: 959.3 ± 1.2 kg/m3
29847 kPa
  mass density: 959.3 ± 1.2 kg/m3
29873 kPa
  mass density: 959.4 ± 1.2 kg/m3
29898 kPa
  mass density: 959.4 ± 1.2 kg/m3
29924 kPa
  mass density: 959.4 ± 1.2 kg/m3
29956 kPa
  mass density: 959.4 ± 1.2 kg/m3
29982 kPa
  mass density: 959.4 ± 1.2 kg/m3
30013 kPa
  mass density: 959.4 ± 1.2 kg/m3
30040 kPa
  mass density: 959.4 ± 1.2 kg/m3
30060 kPa
  mass density: 959.5 ± 1.2 kg/m3
30087 kPa
  mass density: 959.5 ± 1.2 kg/m3
30118 kPa
  mass density: 959.5 ± 1.2 kg/m3
30150 kPa
  mass density: 959.6 ± 1.2 kg/m3
30181 kPa
  mass density: 959.6 ± 1.2 kg/m3
30209 kPa
  mass density: 959.5 ± 1.2 kg/m3
30235 kPa
  mass density: 959.6 ± 1.2 kg/m3
30267 kPa
  mass density: 959.6 ± 1.2 kg/m3
30294 kPa
  mass density: 959.6 ± 1.2 kg/m3
30321 kPa
  mass density: 959.6 ± 1.2 kg/m3
30347 kPa
  mass density: 959.6 ± 1.2 kg/m3
30380 kPa
  mass density: 959.7 ± 1.2 kg/m3
30407 kPa
  mass density: 959.7 ± 1.2 kg/m3
30434 kPa
  mass density: 959.6 ± 1.2 kg/m3
30466 kPa
  mass density: 959.7 ± 1.2 kg/m3
30493 kPa
  mass density: 959.7 ± 1.2 kg/m3
30521 kPa
  mass density: 959.7 ± 1.2 kg/m3
30553 kPa
  mass density: 959.8 ± 1.2 kg/m3
30581 kPa
  mass density: 959.6 ± 1.2 kg/m3
30608 kPa
  mass density: 959.8 ± 1.2 kg/m3
30635 kPa
  mass density: 959.8 ± 1.2 kg/m3
30668 kPa
  mass density: 959.8 ± 1.2 kg/m3
30696 kPa
  mass density: 959.8 ± 1.2 kg/m3
30728 kPa
  mass density: 959.8 ± 1.2 kg/m3
30756 kPa
  mass density: 959.9 ± 1.2 kg/m3
30778 kPa
  mass density: 959.9 ± 1.2 kg/m3
30806 kPa
  mass density: 959.9 ± 1.2 kg/m3
30834 kPa
  mass density: 960 ± 1.2 kg/m3
30862 kPa
  mass density: 959.9 ± 1.2 kg/m3
30906 kPa
  mass density: 960 ± 1.2 kg/m3
30934 kPa
  mass density: 959.8 ± 1.2 kg/m3
30962 kPa
  mass density: 959.9 ± 1.2 kg/m3
30991 kPa
  mass density: 960 ± 1.2 kg/m3
31025 kPa
  mass density: 960 ± 1.2 kg/m3
31053 kPa
  mass density: 959.9 ± 1.2 kg/m3
31086 kPa
  mass density: 960 ± 1.2 kg/m3
31115 kPa
  mass density: 960 ± 1.2 kg/m3
31143 kPa
  mass density: 959.9 ± 1.2 kg/m3
31171 kPa
  mass density: 960.1 ± 1.2 kg/m3
31205 kPa
  mass density: 960.1 ± 1.2 kg/m3
31233 kPa
  mass density: 960.2 ± 1.2 kg/m3
